Reference: patent US7425558B2, “Serotonergic agents for treating sexual dysfunction” (Wyeth, priority 2000, dated 2008)
One block for each molecule: values may come before it.

How the values were obtained:
5-HT1A [1] = target: T1, 5-HT1A (Rattus norvegicus, UniProt P19327); test: Fixed Responding Model, in vivo 5-HT1A antagonism of 8-OH-DPAT-induced decrease in response rate; set-up: species or system rats
T1 construct: from tissue; host or cells: whole animal (rat), behavioural model
T1 sequence (P19327 1-422): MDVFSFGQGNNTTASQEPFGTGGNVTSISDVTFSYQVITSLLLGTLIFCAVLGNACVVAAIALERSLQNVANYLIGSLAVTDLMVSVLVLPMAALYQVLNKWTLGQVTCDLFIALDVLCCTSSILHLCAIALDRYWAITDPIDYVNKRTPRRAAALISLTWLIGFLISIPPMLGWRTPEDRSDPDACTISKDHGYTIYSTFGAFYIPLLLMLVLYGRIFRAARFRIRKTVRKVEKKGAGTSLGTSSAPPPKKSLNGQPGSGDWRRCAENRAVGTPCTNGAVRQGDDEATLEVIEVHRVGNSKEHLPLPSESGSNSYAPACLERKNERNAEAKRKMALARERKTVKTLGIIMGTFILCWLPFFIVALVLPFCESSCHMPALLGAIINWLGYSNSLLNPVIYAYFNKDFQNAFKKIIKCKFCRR
Procedure: The ability of the compounds to function in vivo as 5-HT1A antagonists was assessed in rats using a Fixed Responding Model (D. Blackman, in “Operant Conditioning: An Experimental Analysis of Behavior”, J. Butcher, ed., Methuen and Co., Ltd., London). In this model rats are trained to respond (lever pressing) under a fixed-ratio 30 schedule of food presentation in order to receive a food pellet reinforcer. […] The 5-HT1A antagonist activity of a test compound is determined by measuring its ability to antagonize this agonist-induced decrease in response rate.

5-HT1A [2] = target: T1, 5-HT1A; test: Duration of action in the Fixed Responding Model; format: in vivo, rats
Text: All drug and vehicle administrations were made by the subcutaneous route.

[3] = target: T2, cloned human 5-HT1A receptors (Homo sapiens, UniProt P08908); test: Binding to cloned human 5-HT1A receptors in CHO cells, [3H]8-OH-DPAT radioligand; conditions: read-out: 5-HT1A Affinity Ki
T2 construct: expressed in transfected cells; host or cells: CHO cells
T2 sequence (P08908 1-422): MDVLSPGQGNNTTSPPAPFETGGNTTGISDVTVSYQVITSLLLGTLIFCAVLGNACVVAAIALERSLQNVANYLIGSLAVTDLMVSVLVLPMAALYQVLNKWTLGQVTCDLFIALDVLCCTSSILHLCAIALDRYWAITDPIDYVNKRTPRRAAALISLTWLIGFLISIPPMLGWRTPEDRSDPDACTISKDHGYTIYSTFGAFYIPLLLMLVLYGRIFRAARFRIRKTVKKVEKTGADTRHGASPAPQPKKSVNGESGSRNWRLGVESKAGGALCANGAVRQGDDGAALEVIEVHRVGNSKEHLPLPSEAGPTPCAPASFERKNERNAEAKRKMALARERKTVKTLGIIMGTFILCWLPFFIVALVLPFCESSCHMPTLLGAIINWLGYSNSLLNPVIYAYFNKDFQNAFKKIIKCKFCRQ

human 5-HT1A receptor = target: T3, human 5-HT1A receptor (Homo sapiens, UniProt P08908); test: In vitro functional activity: antagonism of 8-OH-DPAT inhibition of forskolin-stimulated cAMP production; format: cell-based; conditions: antagonism of 10 nM 8-OH-DPAT inhibition of forskolin-stimulated cAMP production; read-out: 5-HT1A Antagonist Activity cAMP Assay IC50
T3 construct: expressed in transfected cells
T3 sequence (P08908 1-422): T2 sequence (P08908 1-422)

[4] = system: sexually experienced male rats (Sprague-Dawley rats); test: Non-contact penile erections in sexually experienced male rats (animal model of drug-induced sexual dysfunction); format: in vivo; conditions: for Reversal of fluoxetine-induced sexual dysfunction: administered acutely after 7 or 14 days of fluoxetine treatment; for Prevention of deficit in non-contact penile erections produced by chronic fluoxetine: co-administered with fluoxetine 10 mg/kg for 7 or 14 days, Example compound 3 1 mg/kg, Example compound 2 0.3 mg/kg
Procedure: The animal model is based on the finding that sexually experienced rats that are administered an SSRI, a drug used to treat certain conditions such as depression, display a reduction in the number of non-contact penile erections. SSRI treatment is associated with sexual dysfunction in human subjects. In general, the animal model exposes sexually experienced male rats (Sprague-Dawley rats) to female rats in estrous in a novel testing arena that is not the regular housing environment.
The ability of various drugs associated with sexual dysfunction in humans to cause sexual dysfunction in the animal model was tested using three different drugs, bupropion (20 mg/kg), desipramine (10 mg/kg), and fluoxetine (10 mg/kg), or vehicle alone (0.9% saline), each administered intraperitoneally (i.p.), once per day for 14 days. After the treatment period, animals were tested for the frequency of non-contact penile erections over a 30 minute trial period.
To examine the time course of the effects of a drug that causes sexual dysfunction, rats that were handled and tested as described above were treated acutely: rats were treated with vehicle for 6 days, and on the test day (day 7) instead of vehicle, the animals received a single dose of fluoxetine in vehicle (i.p.). For a subchronic (7 day) study, fluoxetine was administered each day for 7 days and the animals were evaluated on test day 7. For the chronic 14 day study, fluoxetine was administered each day for 14 days and the animals were tested on day 14. Each fluoxetine dose was 10 mg/kg in vehicle and was delivered i.p. on each of the test days as described above.
To test the ability of a 5-HT1A antagonist to ameliorate the effects of sexual dysfunction, sexually experienced rats were administered an SSRI using an acute or subchronic (7 day) schedule and then tested for sexual function as described above.
In these experiments, rats were treated with vehicle only on days 1-13 then administered a single acute dose of 0.1 mg/kg of the compound (group 1), vehicle only for days 1-13 and a single dose of 1.0 mg/kg compound in vehicle on day 14 (group 2), only vehicle on days 1-14 (group 3), fluoxetine on days 1-14 (group 4), fluoxetine on days 1-13 and a single administration of 0.1 mg/kg of the compound and fluoxetine on day 14 (group 5); and fluoxetine on days 1-13 and a single dose of 1.0 mg/kg compound with fluoxetine on day 14 (group 6). For each group, behavior testing was performed for 30 minutes immediately following drug administration on day 14 only.
Experiments were conducted to assess the ability of a 5-HT1A antagonist to prevent the effects of SSRI treatment. Rats, as described supra, were co-administered a 5-HT1A antagonist and an SSRI. […] The administered SSRI was fluoxetine (10 mg/kg). The 5-HT1A antagonist and SSRI were co-administered for 7 or 14 days with the SSRI.

Reversal of decrease in response rate induced by 8-OH-DPAT (5-HT1A [1]; 1 mg/kg dose, 0.3 mg/kg 8-OH-DPAT): completely reverses
Response Rate (5-HT1A [1]; 8-OH-DPAT (0.3 mg/kg sc) + Example compound 1 (1 mg/kg sc), vehicle control 2.4 ± 0.5): 2.5 ± 0.2 responses/second
Antagonism of agonist-induced decrease in responding (5-HT1A [2]; 30 minutes after administration): completely antagonize
Duration of action (5-HT1A [2]; Fixed Responding Model, sc): > 4 h
Dose Which Shifts Agonist Dose-response Curve by 10-fold (5-HT1A [2]; administered 30 minutes prior to 8-OH-DPAT): 1.0 mg/kg, sc
5-HT1A antagonist effect on response rate (5-HT1A [2]; agonist given 2 hours following test drug administration): complete 5-HT1A antagonist effects
5-HT1A antagonist effect on response rate (5-HT1A [2]; four hours post-administration): complete antagonism
% Response Rate, 0.5 hour pretreatment (5-HT1A [2]; test compound sc (Table 3 dose) 0.5 hour before 0.3 mg/kg 8-OH-DPAT, 100% = vehicle control response rate): 100 ± 7%
% Response Rate, 2 hour pretreatment (5-HT1A [2]; test compound sc (Table 3 dose) 2 hours before 0.3 mg/kg 8-OH-DPAT, 100% = vehicle control response rate): 118 ± 13%
% Response Rate, 4 hour pretreatment (5-HT1A [2]; test compound sc (Table 3 dose) 4 hours before 0.3 mg/kg 8-OH-DPAT, 100% = vehicle control response rate): 99 ± 16%
Ki [3]: 1.6 nM
IC50 (human 5-HT1A receptor): 25 nM
Molecule: C[C@H](CN(C(=O)c1ccc(C#N)cc1)c1ccccn1)N1CCN(c2cccc3c2OCCO3)CC1 [Example 1, (R)-4-Cyano-N-{2-[4-(2,3-Dihydro-Benzo[1,4]dioxin-5-yl)-Piperazin-1-yl]-Propyl}-N-Pyridin-2-yl-Benzamide]

Molecule: COc1ccccc1N1CCN(CCN(C(=O)C2CCCCC2)c2ccccn2)CC1 [Example compound 2, N-[2-[4-(2-methoxyphenyl)-1-piperazinyl]ethyl]-N-(2-pyridinyl)cyclohexanecarboxamide]
Reversal of fluoxetine-induced sexual dysfunction [4]: complete and significant reversal
Prevention of deficit in non-contact penile erections produced by chronic fluoxetine [4]: prevented the deficit in non-contact penile erections
Effect on drug-induced sexual dysfunction ([4]; single acute dose after a period of drug-induced sexual dysfunction): ameliorated sexual dysfunction

Molecule: CNCCC(Oc1ccc(C(F)(F)F)cc1)c1ccccc1 (stereo not drawn) [fluoxetine, N-methyl-3-(p-trifluoromethylphenoxy)-3-phenylpropylamine, reference compound]
Sexual dysfunction (number of non-contact penile erections in 30 minutes) ([4]; chronic (14 days) fluoxetine 10 mg/kg i.p.): significant increase in sexual dysfunction
Sexual dysfunction (number of non-contact penile erections in 30 minutes) ([4]; sub-chronic (7 days) fluoxetine 10 mg/kg i.p.): significant increase in sexual dysfunction

Molecule: (R)-N-(2-methyl-(4-indolyl-1-piperazinyl)ethyl)-N-(2-pyridinyl)cyclohexanecarboxamide [Example compound 3]
Reversal of fluoxetine-induced sexual dysfunction [4]: complete and significant reversal
Prevention of deficit in non-contact penile erections produced by chronic fluoxetine [4]: prevented the deficit in non-contact penile erections
Reversal of deficits in number of non-contact penile erections ([4]; single dose 0.1 mg/kg on day 14 of fluoxetine 10 mg/kg/day i.p.): full reversal
Reversal of deficits in number of non-contact penile erections ([4]; single dose 1.0 mg/kg on day 14 of fluoxetine 10 mg/kg/day i.p.): full reversal
